Data set [1] has as its target T1, ABCG2 (Homo sapiens, UniProt Q9UNQ0, R482G).
T1 sequence (Q9UNQ0 1-655 R482G): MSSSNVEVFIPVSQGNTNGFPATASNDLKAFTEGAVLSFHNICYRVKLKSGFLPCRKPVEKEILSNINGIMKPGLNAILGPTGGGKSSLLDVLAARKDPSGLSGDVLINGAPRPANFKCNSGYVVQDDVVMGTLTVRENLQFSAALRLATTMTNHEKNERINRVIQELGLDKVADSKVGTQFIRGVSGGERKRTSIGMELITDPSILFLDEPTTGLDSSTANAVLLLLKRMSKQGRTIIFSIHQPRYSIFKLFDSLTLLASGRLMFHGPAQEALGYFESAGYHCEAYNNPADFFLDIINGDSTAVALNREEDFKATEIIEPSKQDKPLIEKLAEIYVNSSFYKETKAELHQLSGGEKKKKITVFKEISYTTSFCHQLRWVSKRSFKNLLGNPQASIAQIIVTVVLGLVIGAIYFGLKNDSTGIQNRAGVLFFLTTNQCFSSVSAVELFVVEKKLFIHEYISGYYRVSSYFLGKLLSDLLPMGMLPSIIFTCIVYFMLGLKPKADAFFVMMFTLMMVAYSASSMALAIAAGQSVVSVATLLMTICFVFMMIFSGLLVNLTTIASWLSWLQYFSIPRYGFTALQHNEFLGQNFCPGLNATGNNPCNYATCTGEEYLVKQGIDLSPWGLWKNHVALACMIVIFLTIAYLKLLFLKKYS
As to the kind of experiment: Hoechst dye uptake in intact Sf9 cells expressing ABCG2 (fluorescence spectrophotometry). It is filed as cell-based. On the set-up: removing the full length human ABCG2 cDNA (G482 variant); expressed in transfected cells; host or cells: Sf9 insect cells infected with recombinant baculovirus. The protocol: FIG. 6. Hoechst dye uptake followed by fluorescence spectrophotometry in Sf9 cells expressing ABCG2482G (Panel A) or ABCG2 K86M mutant (Panel B). Abscissa: time in seconds. Ordinate: relative fluorescence in arbitrary units.
Hoechst33342 uptake—Hoechst dye uptake (5 μM) was measured in a fluorescence spectrophotometer at 350 nm (excitation)/460 nm (emission), by using 3×10^5 cells in a HPMI solution. This dye becomes fluorescent only in a complex with DNA (Haugland, MP catalogue). The initial increase of fluorescence is due to a rapid dye uptake and nuclear staining in dead cells, while further cellular dye uptake is reflected by an increase in fluorescence. At the end of each experiment, for standardization, a full cellular staining is obtained by the addition of 8 μM digitonin, disrupting the integrity of the cell membrane.

The target of data set [2] is T1, ABCG2. As to the kind of experiment: Vanadate sensitive ATPase activity in isolated membranes of ABCG2-expressing Sf9 cells. An excerpt:
FIG. 2: Comparison of the effects of various compounds on the vanadate sensitive ATPase activity in isolated Sf9 membranes of ABCG2 (FIG. 2a) or MDR1 (FIG. 2b) expressing Sf9 cells. […] Data points indicate the mean±S.D. values of at least four measurements, performed in two or three different membrane preparations.
Individual clones expressing high levels of the human ABCG2 were obtained by end-point dilution and subsequent amplification. The clone producing the highest yield of the ABCG2 protein was selected by immunoblotting (see below).
The reaction mixture contained 40 mM MOPS-Tris (pH 7.0), 50 MM KCl, 2 mM dithiothreitol, 500 μM EGTA-Tris, 5 mM Na-azide, 1 mM oubain and 5-20 μg membrane protein. […] The vanadate sensitive faction was determined in the presence of 1 mM Na-orthovanadate.

Data set [3] has as its target human MDR1 protein (Homo sapiens, UniProt P08183).
From the text: Data points indicate the mean±S.D. values of at least four measurements, performed in two or three different membrane preparations. Control values show the activity measured in the absence of added compounds.
In data set [4] the target is T1, ABCG2. As for the experimental part: FIG. 5. Mitoxantrone uptake in intact Sf9 cells expressing ABCG2 variants.
Flow-cytometry determination of MX fluorescence after 30 min incubation at 37° C.
Cells were washed once and suspended in HPMI. Aliquots of the suspension containing 3×10^5 cells were incubated with or without the addition of 5 μM MX, and also with 5 μM MX+10 μM FTC (a specific inhibitor of ABCG2). After an incubation for 30 minutes at 37° C. the cells were washed with ice-cold HPMI medium and than suspended in ice-cold HPMI containing 1.51 μl 10 mg/ml propidium-iodide and stored on ice until the flow cytometry measurements. […] Events were counted up to 15000 and dead cells were excluded based on propidium iodide staining.

Where [5] appears, read: relative to the ATPase activity measured in the absence of compound.

Like-named read-outs stand apart in the source and are kept apart here.

Chain of human MDR1 protein (P08183 whole entry): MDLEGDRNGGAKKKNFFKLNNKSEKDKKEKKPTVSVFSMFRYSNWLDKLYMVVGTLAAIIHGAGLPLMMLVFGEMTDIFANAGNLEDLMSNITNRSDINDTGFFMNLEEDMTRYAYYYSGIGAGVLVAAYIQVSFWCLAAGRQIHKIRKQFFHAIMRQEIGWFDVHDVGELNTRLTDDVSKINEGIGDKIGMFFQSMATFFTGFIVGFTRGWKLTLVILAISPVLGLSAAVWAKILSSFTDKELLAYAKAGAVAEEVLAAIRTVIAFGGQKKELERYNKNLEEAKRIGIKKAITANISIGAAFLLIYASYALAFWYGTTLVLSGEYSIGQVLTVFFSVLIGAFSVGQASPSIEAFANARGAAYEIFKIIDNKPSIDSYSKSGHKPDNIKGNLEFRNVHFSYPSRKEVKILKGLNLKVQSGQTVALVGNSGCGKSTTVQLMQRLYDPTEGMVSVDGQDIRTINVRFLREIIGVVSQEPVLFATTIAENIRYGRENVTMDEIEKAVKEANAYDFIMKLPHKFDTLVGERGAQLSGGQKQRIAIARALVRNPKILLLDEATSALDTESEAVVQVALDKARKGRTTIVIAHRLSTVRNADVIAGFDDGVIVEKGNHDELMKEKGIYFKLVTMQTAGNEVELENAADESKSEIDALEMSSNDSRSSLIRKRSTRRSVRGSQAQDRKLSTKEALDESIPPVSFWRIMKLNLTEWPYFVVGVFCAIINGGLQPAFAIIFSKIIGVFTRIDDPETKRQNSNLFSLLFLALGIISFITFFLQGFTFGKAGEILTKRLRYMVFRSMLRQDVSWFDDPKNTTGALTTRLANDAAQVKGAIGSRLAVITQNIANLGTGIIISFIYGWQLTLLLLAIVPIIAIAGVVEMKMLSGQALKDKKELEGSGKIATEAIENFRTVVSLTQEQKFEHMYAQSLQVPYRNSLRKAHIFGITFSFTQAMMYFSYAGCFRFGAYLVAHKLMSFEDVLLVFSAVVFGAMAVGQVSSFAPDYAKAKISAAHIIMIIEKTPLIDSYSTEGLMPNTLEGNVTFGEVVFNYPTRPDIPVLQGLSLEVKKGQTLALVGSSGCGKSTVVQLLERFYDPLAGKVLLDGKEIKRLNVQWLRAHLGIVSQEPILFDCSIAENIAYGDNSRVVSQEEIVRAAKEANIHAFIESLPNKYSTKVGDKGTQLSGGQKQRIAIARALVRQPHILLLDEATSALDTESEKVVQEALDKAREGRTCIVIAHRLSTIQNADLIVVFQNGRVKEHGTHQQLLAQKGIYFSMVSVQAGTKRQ

With `CCOc1ccc(-c2nc3ccc(-c4nc5ccc(N6CCN(C)CC6)cc5[nH]4)cc3[nH]2)cc1` [Hoechst dye, Hoechst33342], the “Hoechst dye extrusion by ABCG2-expressing Sf9 cells” value in data set [1] is “actively extrude”.

Turning to `CC(=O)OCOC(=O)CN(CC(=O)OCOC(C)=O)Cc1cc2c(cc1OC(C)=O)Oc1cc(OC(C)=O)c(CN(CC(=O)OCOC(C)=O)CC(=O)OCOC(C)=O)cc1C21OC(=O)c2ccccc21` [Calcein-AM, calcein acetoxy-methylesther], the “Effect on ABCG2-ATPase activity” value in data set [2] (result in words) is “no effect”. In addition, in data set [3], the “Kact, MDR1-ATPase” value is “about 1 μM” and the “Stimulation of MDR1-ATPase” value came to 4.5 fold.

`COc1cccc2c1C(=O)c1c(O)c3c(c(O)c1C2=O)C[C@@](O)(C(C)=O)C[C@@H]3O[C@H]1C[C@H](N)[C@H](O)[C@H](C)O1` [Daunorubicin]: in data set [2] (human, pH 7), the Emax – broadly, the greatest response seen or fitted, relative to the assay's reference – worked out at 50% and the Kact was 2,5 mM.

`CCN1C(=O)C=CC1=O` [NEM, N-ethylmaleimide]: the Ki (commonly the equilibrium dissociation constant of an inhibitor or competing ligand from its target) in data set [2] is 10 µM.

For `Nc1ncnc2c1ncn2[C@@H]1O[C@H](COP(=O)(O)OP(=O)([O-])OP(=O)([O-])O)[C@@H](O)[C@H]1O.[Mg+2]` [MgATP], in data set [2], the Km (usually the substrate concentration at which the rate is half of its maximum) is around 300 µM and the “MgATP concentration producing half-maximum membrane ATPase activity” value amounted to 0.3 mM. Besides, in data set [2] (read-out: KM ATP, without an added substrate), the Km was 600 µM.

With `[Na+].[Na+].[Na+].[O]=[V]([O-])([O-])[O-]` [Na-orthovanadate], the Ki in data set [2] was around 20 µM.

Compound `COc1ccc2c3c([nH]c2c1)[C@H](C=C(C)C)N1C(=O)[C@@H]2CCCN2C(=O)[C@@H]1C3` [Fumitremorgin C] had a Ki in data set [2] of 1.3 µM. Also, in data set [2] (setting [5]), the “Maximum inhibition (%)” value was 74%. Also, the “Effect on ABCG2-ATPase activity” value in data set [2] (result in words) is “strongly inhibited”. The “Effect on active extrusion of fluorescent compounds by ABCG2 482 variants” value in data set [4] (482R, 482G, 482T variants, intact Sf9 cells) is reported as “inhibited”. Further, the “Effect on verapamil stimulated MDR1-ATPase activity” value in data set [3] (33 μM verapamil) was “no significant effect”. The “Effect on MDR1-ATPase activity” value in data set [3] (basal, result in words) is “no significant effect”.

In data set [2] (human, pH 7), `COc1cccc2c1C(=O)c1c(O)c3c(c(O)c1C2=O)C[C@@](O)(C(=O)CO)C[C@@H]3O[C@H]1C[C@H](N)[C@H](O)[C@H](C)O1` [Doxorubicin] returned a maximum response (Emax) of 30% and a Kact of 5 mM.

Rhodamine 123: the Kact in data set [2] is on record as 4,5 mM. Also, the “Maximum stimulation (%)” value in data set [2] (setting [5]) is 20%.

With `O=C1c2c(O)ccc(O)c2C(=O)c2c(NCCNCCO)ccc(NCCNCCO)c21` [Mitoxantrone], in data set [2] (human, pH 7), the “Effect on ABCG2-ATPase activity” value was “stimulated the ABCG2-ATPase activity in a concentration dependent manner”, the Emax stood at 40% and the Kact came out at 7 mM. For the same compound, the “Mitoxantrone extrusion by ABCG2-expressing Sf9 cells” value in data set [4] (intact cells, flow cytometry) is recorded as “actively extrude”. The “Effect on MDR1-ATPase activity” value in data set [3] is “no significant effect”.

The values above are taken from US20040175762A1, “Screening system based on expression of abcg2 half transporter protein” (priority 2001, published 2004).
